This note sets out measurements from patent publication US7176204B2, “Substituted carboxylic acid derivatives” (Kyorin Pahrmaceutical Co., Ltd., priority 2000, dated 2007).

Data set [1] has as its target T1, human type PPARδ ligand-binding domain fused with DNA-binding domain of yeast transcription factor (Homo sapiens, UniProt Q03181).
T1 construct: expressed in transfected cells; host or cells: CHO cells
T1 sequence (Q03181 211-439 limits assumed): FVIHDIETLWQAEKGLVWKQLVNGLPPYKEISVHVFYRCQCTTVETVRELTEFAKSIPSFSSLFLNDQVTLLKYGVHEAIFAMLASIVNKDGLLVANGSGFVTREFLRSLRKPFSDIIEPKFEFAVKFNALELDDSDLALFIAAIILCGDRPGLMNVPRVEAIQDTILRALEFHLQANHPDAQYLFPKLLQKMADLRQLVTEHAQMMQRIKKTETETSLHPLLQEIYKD
Kind of data set: Test of transactivation on PPAR (luciferase reporter, CHO cells), PPARδ. The note with it: luciferase activity after 24 hours, corrected with Renilla internal standard. Format: cell-based. The source says: (§1) <Test of Transactivation on Peroxisome Proliferator-Activated Receptor (PPAR)
(§2) To CHO cells cultured in a Dulbecco-modified Eagle's medium containing 10% delipidated fetal calf serum (FCS/DMEM), receptor plasmid and its reporter plasmid (STRATAGENE Corp.) that manifest fused protein of DNA-binding domain being transcription factor of yeast with each ligand-binding domain of human type PPAR (Biochemistry, 1993, 32, 5598), and luciferase plasmid of Renilla (PROMEGA Corp.) for internal standard were cotransfected with lipofectamine in the serum-free state. Thereafter, testing compound was added to the 10% SFCS/DMEM and both luciferase activities were measured after 24 hours, which were corrected with internal standard.
A general note: Reporter assays use an easily measured gene product as a stand-in for the process of interest.

For data set [2], the target named is T2, human type PPARα ligand-binding domain fused with DNA-binding domain of yeast transcription factor (Homo sapiens, UniProt Q07869).
T2 construct: expressed in transfected cells; host or cells: CHO cells
T2 sequence (Q07869 239-466 limits assumed): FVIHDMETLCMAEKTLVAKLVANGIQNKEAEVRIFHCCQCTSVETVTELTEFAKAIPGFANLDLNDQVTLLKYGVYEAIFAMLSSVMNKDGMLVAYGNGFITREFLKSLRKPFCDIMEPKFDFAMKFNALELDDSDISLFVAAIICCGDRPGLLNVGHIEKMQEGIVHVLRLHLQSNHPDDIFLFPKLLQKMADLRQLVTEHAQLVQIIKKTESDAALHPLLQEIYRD
Put plainly: Test of transactivation on PPAR (luciferase reporter, CHO cells), PPARα. Format: cell-based. The following applies: luciferase activity after 24 hours, corrected with Renilla internal standard.
Source text: as §1, §2

Data set [3] concerns the target T3, human type PPARγ ligand-binding domain fused with DNA-binding domain of yeast transcription factor (Homo sapiens, UniProt P37231).
T3 construct: expressed in transfected cells; host or cells: CHO cells
T3 sequence (P37231 238-503 limits assumed): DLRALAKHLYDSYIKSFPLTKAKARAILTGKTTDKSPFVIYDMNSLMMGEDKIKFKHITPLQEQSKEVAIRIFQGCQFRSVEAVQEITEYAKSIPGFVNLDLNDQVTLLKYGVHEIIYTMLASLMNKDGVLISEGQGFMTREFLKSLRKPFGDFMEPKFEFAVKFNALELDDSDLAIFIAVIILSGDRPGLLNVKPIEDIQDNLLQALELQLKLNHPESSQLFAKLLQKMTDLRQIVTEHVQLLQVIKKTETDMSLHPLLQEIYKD
Put plainly: Test of transactivation on PPAR (luciferase reporter, CHO cells), PPARγ. It counts as cell-based. The following applies: luciferase activity after 24 hours, corrected with Renilla internal standard.
Source text: as §1, §2

A value given as a limit tells only on which side of the number the result lay.

A word on the EC50: it is the concentration needed to bring the measured effect to its halfway point. As to `CCOc1ccc(CC(CC)C(=O)O)cc1CNC(=O)c1ccc(Oc2ccccn2)cc1` (racemic) [Example 26, 2-[[4-Ethoxy-3-[[[4-(2-pyridyloxy)phenyl]carbonylamino]-methyl]phenyl]methyl]butyric acid], the concentration for a half-maximal effect (EC50) in data set [1] was determined as 190 nM; in data set [2], 44 nM; in data set [3], 410 nM.

Regarding `CCOc1ccc(CC(CC)C(=O)O)cc1CNC(=O)c1ccc(Oc2ccccn2)cc1` (single isomer, unassigned; (+)) [Example 27, (+)-2-[[4-Ethoxy-3-[[[4-(2-pyridyloxy)phenyl]carbonylamino]-methyl]phenyl]methyl]butyric acid], the 50% effective concentration (EC50) in data set [1] turned out to be 210 nM; in data set [2], 60 nM; in data set [3], 550 nM.

As for `CCOc1ccc(CC(CC)C(=O)O)cc1CNC(=O)c1ccc(Oc2ccccn2)cc1` (single isomer, unassigned; (-)) [Example 28, (−)-2-[[4-Ethoxy-3-[[[4-(2-pyridyloxy)phenyl]carbonylamino]methyl]phenyl]methyl]butyric acid], the figures for the concentration giving a half-maximal response (EC50) in data set [1], in data set [2] and in data set [3] were 1100 nM, 190 nM and 580 nM, respectively.

The melting point is the temperature of the solid-liquid transition. In the case of `COc1ccc(CCC(=O)O)cc1C(=O)NCc1cccnc1` [Example 16, 3-[3-[N-(3-Pyridylmethyl)carbamoyl]-4-methoxyphenyl]propionic acid], the melting point was in the range of 175 to 176 °C.

The compound `CCC(Cc1ccc(OC)c(C(=O)NCc2ccc(Oc3ccccn3)cc2)c1)C(=O)O` (centres unmarked) [Example 18] registered a melting point of 138 to 139 °C. Further, the half-maximal effective concentration (EC50) in data set [1] was greater than 100000 nM. This compound showed a 50% effective concentration (EC50) in data set [2] of 140 nM. The compound further yielded an EC50 in data set [3] of 9600 nM.

As to `CCC(Cc1ccc(OC)c(CNC(=O)c2ccc(Oc3cccnc3)cc2)c1)C(=O)O` (centres unmarked) [Example 23], the EC50 was found to be 2200 nM in data set [1], 340 nM in data set [2] and 5400 nM in data set [3].
